From article PMC6934184, “Selective DNA-PKcs inhibition extends the therapeutic index of localized radiotherapy and chemotherapy” (The Journal of Clinical Investigation, 2019) come the findings set out here.

This test deals with T1, FRAP1 (mTOR) (Homo sapiens, UniProt P42345).
T1 construct: purchased Thermo Fisher Scientific (Life Technologies) SelectScreen
As to the kind of experiment: SelectScreen Z'LYTE. It is filed as biochemical. A digest of the protocol: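 Compound tested in SelectScreen activity assays, Z'LYTE for CSF1R, CDK1/cyclin B and MAP2K6 and Adapta for CAMK1. ATP for CAMK1 was listed as 10, and Km app was used for CSF1R. Results are expressed in percent.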

Usually inhibition stands for the percentage by which the read-out fell short of the control. High values mean a response far below the control, low ones a response near the control.

Molecules are shown by their SMILES.

The compound `CN(C(=O)CN1CCOCC1)c1ccc2sc3c(-c4cccc5c(=O)cc(N6CC7CCC(C6)O7)oc45)cccc3c2c1` [NU5455] came in with an inhibition at 1 µM of 5.7%.
